From ChEMBL document CHEMBL1153003, “Synthesis and affinity to DNA of phenylbenzoimidazoles and benzoimidazo[1,2-c]quinazolines” (Eur J Med Chem, 2009) come the findings set out here.

The structures appear in SMILES notation.

The subject of the experiment is Calf thymus DNA. The experiment can be described thus: Displacement of ethidium bromide from calf thymus DNA. The settings on record: Bos taurus. It counts as nucleic-acid assay.
Compound `c1ccc2c(c1)nc(CCN1CCOCC1)n1c3ccccc3nc21` returned a logC50 of -4.12 and a logKA of 6.22.
Taken in the same sequence, the figures for `CN1CCN(Cc2nc3ccccc3c3nc4ccccc4n23)CC1` were -3.72 and 5.82.
Taken in the same sequence, the figures for `CN1CCN(CC(=O)Nc2ccccc2-c2nc3ccccc3[nH]2)CC1` were -2.32 and 4.42.
Taken in the same sequence, the figures for `CN1CCN(CCc2nc3ccccc3c3nc4ccccc4n23)CC1` were -4.18 and 6.28.
Consider `CC1CCCCN1CCc1nc2ccccc2c2nc3ccccc3n12` (configuration not stated), for which the logC50 was -4.17 and the logKA is 6.27.
For `c1ccc2c(c1)nc(CN1CCOCC1)n1c3ccccc3nc21` the same measures were -3.44 and 5.54.
For `O=C(CN1CCCCC1)Nc1ccccc1-c1nc2ccccc2[nH]1` the same measures were -2.65 and 4.75.
For `CC1CCCCN1CCC(=O)Nc1ccccc1-c1nc2ccccc2[nH]1` (configuration not stated) the same measures were -2.66 and 4.76.
`CC1CCN(Cc2nc3ccccc3c3nc4ccccc4n23)CC1` displayed a logC50 of -3.83 and a logKA of 5.93.
Compound `O=C(CCN1CCOCC1)Nc1ccccc1-c1nc2ccccc2[nH]1` registered a logC50 of -2.92 and a logKA of 5.02.
Compound `CC1CCCCN1Cc1nc2ccccc2c2nc3ccccc3n12` (configuration not stated) registered a logC50 of -3.65 and a logKA of 5.75.
Taken in the same sequence, the figures for `CCN(CC)CCOc1ccc2c(c1)C(=O)c1cc(OCCN(CC)CC)ccc1-2` were -4.2 and 6.3.
For `c1ccc2c(c1)nc(CCN1CCCCC1)n1c3ccccc3nc21` the same measures were -4.03 and 6.13.
`O=C(CN1CCOCC1)Nc1ccccc1-c1nc2ccccc2[nH]1` yielded a logC50 of -2.58 and a logKA of 4.68.
Consider `CC1CCCCN1CC(=O)Nc1ccccc1-c1nc2ccccc2[nH]1` (configuration not stated), for which the logC50 is -2.66 and the logKA turned out to be 4.76.
In turn, `CC1CCN(CCc2nc3ccccc3c3nc4ccccc4n23)CC1` had a logC50 of -4.23 and a logKA of 6.33.
For `CC1CCN(CCC(=O)Nc2ccccc2-c2nc3ccccc3[nH]2)CC1` the same measures were -2.83 and 4.93.
For `O=C(CCN1CCCCC1)Nc1ccccc1-c1nc2ccccc2[nH]1` the same measures were -2.8 and 4.9.
Taken in the same sequence, the figures for `c1ccc2c(c1)nc(CN1CCCCC1)n1c3ccccc3nc21` were -3.84 and 5.94.
On to `CC1CCN(CC(=O)Nc2ccccc2-c2nc3ccccc3[nH]2)CC1`, for which the logC50 was -2.84 and the logKA turned out to be 4.94.
Taken in the same sequence, the figures for `CN1CCN(CCC(=O)Nc2ccccc2-c2nc3ccccc3[nH]2)CC1` were -2.86 and 4.96.
